Several values for one entry are separate records, joined by “and”; a condition that tells them apart may be missing. Equal entries are not always repeated.
Legend:
hCA I = target: T1, hCA I (Homo sapiens, UniProt P00915); test: stopped-flow CO2 hydrase assay, hCA I; assay type: biochemical
T1 construct: made in house
Procedure: (§1) An Applied Photophysics stopped-flow instrument has been used for assaying the CA-catalysed CO2 hydration activity, as reported earlier. The enzyme concentrations were in the range 5–12 nM. All hCA isoforms were recombinant proteins, being obtained in-house as reported earlier.

hCA II = target: T2, hCA II (Homo sapiens, UniProt P00918); test: stopped-flow CO2 hydrase assay, hCA II; assay type: biochemical
T2 construct: made in house
Source text: . The structure-activity relationship is discussed separately for the two compound subsets. Another code pattern is included for the MTDLs in Table 1, which indicates the derivative CAI type (sulphonamide, S or coumarin, C) and the number of atoms in the spacers connecting either berberine and the triazole (carbon atoms) or the triazole and the benzenesulfonamide/coumarin scaffolds (carbon or oxygen atoms).
as §1

hCA IX = target: T3, hCA IX (Homo sapiens, UniProt Q16790); test: stopped-flow CO2 hydrase assay, hCA IX; assay type: biochemical; details: for Selectivity index (SI) I/IX: hCA IX over hCA I; for Selectivity index (SI) II/IX: hCA IX over hCA II; for Ki: mean ± SEM of three assays
T3 construct: made in house
Source text: An Applied Photophysics stopped-flow instrument has been used for assaying the CA-catalysed CO2 hydration activity, as reported earlier. […] All hCA isoforms were recombinant proteins, being obtained in-house as reported earlier.

Tel23 = test: CD melting experiments, Tel23 GQ; assay type: binding, human; details: for ΔT1/2 Tel23: 2 molar equiv compound, T1/2 of DNA alone 53.5 °C; for ΔΔT1/2 Tel23: ΔT1/2 of compound minus ΔT1/2 of berberine, 2 molar equiv
c-Kit1 = test: CD melting experiments, c-Kit1 GQ; assay type: binding; details: for ΔT1/2 c-Kit1: 2 molar equiv compound, T1/2 of DNA alone 55.0 °C; for ΔΔT1/2 c-Kit1: ΔT1/2 of compound minus ΔT1/2 of berberine, 2 molar equiv
F-c-Kit1-T GQ = test: FRET melting competition experiments; assay type: binding; details: 2 molar equiv ligand; for ΔT1/2 F-c-Kit1-T + Hairpin (1:15): 15 molar equiv unlabelled Hairpin; for ΔT1/2 F-c-Kit1-T + Hairpin (1:50): 50 molar equiv unlabelled Hairpin; for ΔT1/2 F-c-Kit1-T: no competitor
Source text: FRET melting analysis was used to further estimate the GQ over duplex selectivity of the selected compounds[53]. The GQ-forming oligonucleotide c-Kit1 labelled with FAM and TAMRA (F-c-Kit1-T) was employed because, among the parallel GQs used in this study (c-Kit1 and c-Myc), it was the only one with a lower T1/2 than the hairpin DNA duplex competitor (Hairpin), thus allowing proper estimation of the GQ-stabilising properties of the ligands in the presence of a large excess of the unlabelled (non-fluorescent) competitor. […] The sulphonamide S-3,2 was also considered since the crystal structure of such MTDL in complex with Tel23 was successfully obtained. Results of these experiments (Figure S9, Supporting Information and Table 3) confirmed that these compounds are efficient GQ stabilisers.
Measurements were carried out on an FP-8300 spectrofluorometer equipped with a Peltier temperature controller system (PCT-818). The dual-labelled GQ-forming FAM-[d([…])]-TAMRA sequence (F-c-Kit1-T), supplied by biomers.net GmbH (Ulm, Germany), was used for the experiments without further purification. […] The experiments were carried out in sealed quartz cuvettes with a path length of 1 cm, by using 0.2 μM GQ-forming oligonucleotide without or with 0.4 μM of each compound, and the unlabelled competitor (Hairpin) at 0, 3, and 10 μM final concentrations. FRET melting experiments were performed in the range 15–90 °C, with 0.2 °C/min heating rate, by monitoring the emission of FAM at 520 nm (upon excitation at 492 nm). Both excitation and emission slits were set to 5 nm. The emission intensity of FAM was then normalised between 0 and 1. Fluorescence emission spectra were acquired before (at 15 °C) and after (at 90 °C) the melting assay, in the range 500–650 nm, with a 100 nm/s scan speed. Data analysis was performed using OriginPro 2021 software.

Hairpin = test: CD melting experiments, hairpin DNA duplex; details: 2 molar equiv compound, T1/2 of DNA alone 66.0 °C
[1] = sulphonamides, inhibitor-enzyme incubation 15 min, mean ± SEM of three assays
[2] = sulphonamides, inhibitor-enzyme incubation 15 min
[3] = coumarins, inhibitor-enzyme incubation 6 h

T1 sequence (P00915 whole entry): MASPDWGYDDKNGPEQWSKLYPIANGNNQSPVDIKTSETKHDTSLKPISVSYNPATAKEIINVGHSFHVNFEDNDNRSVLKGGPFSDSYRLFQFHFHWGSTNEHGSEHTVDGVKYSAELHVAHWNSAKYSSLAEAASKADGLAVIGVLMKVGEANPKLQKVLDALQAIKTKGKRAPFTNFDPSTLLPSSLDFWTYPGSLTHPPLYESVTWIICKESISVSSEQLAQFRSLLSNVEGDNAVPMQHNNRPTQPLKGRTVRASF

SMILES | Ki (hCA I; [1]) | Ki (hCA II; [1]) | Selectivity index (SI) I/IX (hCA IX) | Selectivity index (SI) II/IX (hCA IX) | Ki (hCA IX; [2]) | Ki (hCA I; [3]) | Ki (hCA II; [3]) | Ki (hCA IX; [3]) | ΔT1/2 Tel23 (Tel23) | ΔΔT1/2 Tel23 (Tel23) | ΔT1/2 c-Kit1 (c-Kit1) | ΔΔT1/2 c-Kit1 (c-Kit1) | ΔΔT1/2 c-Kit1 (c-Kit1; listed as S-2,0) | ΔT1/2 F-c-Kit1-T + Hairpin (1:15) (F-c-Kit1-T GQ) | ΔT1/2 F-c-Kit1-T + Hairpin (1:50) (F-c-Kit1-T GQ) | ΔT1/2 F-c-Kit1-T (F-c-Kit1-T GQ) | ΔT1/2 Hairpin (Hairpin) | ΔΔT1/2 c-Kit1 (c-Kit1; listed as S-4,0) | ΔΔT1/2 c-Kit1 (c-Kit1; listed as S-5,0)
COc1ccc2cc3[n+](cc2c1OCCCCn1cc(-c2ccc(S(N)(=O)=O)cc2)nn1)CCc1cc2c(cc1-3)OCO2 [Compound 30, 10-Methoxy-9–(4–(4-(4-sulfamoylphenyl)-1H-1,2,3-triazol-1-yl)butoxy)-5,6-dihydro-[1,3]dioxolo[4,5-g]isoquinolino[3,2-a]isoquinolin-7-ium hexafluorophosphate] | 592 ± 36.3 nM | 55.1 ± 3.8 nM | 1209 | 112.4 | 0.49 ± 0.03 nM | – | – | – | 9.0 °C | −0.5 °C | 20.5 °C | 7.5 °C | – | 13.8 °C | 12.6 °C | 13.6 °C | -1.0 °C | ≥ 6.0 °C | –
COc1ccc2cc3[n+](cc2c1OCCCn1cc(COc2ccc4ccc(=O)oc4c2)nn1)CCc1cc2c(cc1-3)OCO2 [Compound 34, 10-Methoxy-9–(3-(4-(((2-oxo-2H-chromen-7-yl)oxy)methyl)-1H-1,2,3-triazol-1-yl)propoxy)-5,6-dihydro-[1,3]dioxolo[4,5-g]isoquinolino[3,2-a]isoquinolin-7-ium hexafluorophosphate] | – | – | – | – | – | > 100000 nM | > 100000 nM | 66 ± 4.3 nM | 10.5 °C | 1.0 °C | 20.0 °C | 7.0 °C | – | 11.4 °C | 11.2 °C | 10.6 °C | +1.0 °C | – | –
COc1ccc2cc3[n+](cc2c1OCCCCn1cc(COc2ccc4ccc(=O)oc4c2)nn1)CCc1cc2c(cc1-3)OCO2 [Compound 37, 10-Methoxy-9–(4-(4-(((2-oxo-2H-chromen-7-yl)oxy)methyl)-1H-1,2,3-triazol-1-yl)butoxy)-5,6-dihydro-[1,3]dioxolo[4,5-g]isoquinolino[3,2-a]isoquinolin-7-ium hexafluorophosphate] | – | – | > 578.0 | > 578.0 | – | > 100000 nM | > 100000 nM | 17.3 ± 1.2 nM | 9.0 °C | −0.5 °C | 17.5 °C | 4.5 °C | – | 12.8 °C | 12.6 °C | 12.0 °C | +0.5 °C | – | –
COc1ccc2cc3[n+](cc2c1OCCCCCn1cc(COc2ccc4ccc(=O)oc4c2)nn1)CCc1cc2c(cc1-3)OCO2 [Compound 39, 10-Methoxy-9-((5–(4-(((2-oxo-2H-chromen-7-yl)oxy)methyl)-1H-1,2,3-triazol-1-yl)pentyl)oxy)-5,6-dihydro-[1,3]dioxolo[4,5-g]isoquinolino[3,2-a]isoquinolin-7-ium hexafluorophosphate] | – | – | > 205.8 | > 205.8 | – | > 100000 nM | > 100000 nM | 48.6 ± 2.6 nM | 8.5 °C | −1.0 °C | 20.0 °C | 7.0 °C | – | 13.2 °C | 14.0 °C | 14.6 °C | -1.0 °C | – | –

More lines, main results first:

Ki (hCA I; [1]) | Ki (hCA II; [1]) | Selectivity index (SI) I/IX (hCA IX) | Selectivity index (SI) II/IX (hCA IX) | Ki (hCA IX; [2]) | Ki (hCA I; [3]) | Ki (hCA II; [3]) | Ki (hCA IX; [3]) | SMILES | ΔT1/2 Tel23 (Tel23) | ΔΔT1/2 Tel23 (Tel23) | ΔT1/2 c-Kit1 (c-Kit1) | ΔΔT1/2 c-Kit1 (c-Kit1) | ΔΔT1/2 c-Kit1 (c-Kit1; listed as S-2,0) | ΔT1/2 F-c-Kit1-T + Hairpin (1:15) (F-c-Kit1-T GQ) | ΔT1/2 F-c-Kit1-T + Hairpin (1:50) (F-c-Kit1-T GQ) | ΔT1/2 F-c-Kit1-T (F-c-Kit1-T GQ) | ΔT1/2 Hairpin (Hairpin) | ΔΔT1/2 c-Kit1 (c-Kit1; listed as S-4,0) | ΔΔT1/2 c-Kit1 (c-Kit1; listed as S-5,0)
581 ± 32.5 nM | 59.4 ± 3.8 nM | 414.6 | 42.4 | 1.1 nM and 1.4 nM | – | – | – | COc1ccc2cc3[n+](cc2c1OCCn1cc(-c2ccc(S(N)(=O)=O)cc2)nn1)CCc1cc2c(cc1-3)OCO2 [Compound 26, 10-Methoxy-9–(2-(4–(4-sulfamoylphenyl)-1H-1,2,3-triazol-1-yl)ethoxy)-5,6-dihydro-[1,3]dioxolo[4,5-g]isoquinolino[3,2-a]isoquinolin-7-ium hexafluorophosphate] | 10.0 °C | 0.5 °C | 22.0 °C | 9.0 °C | ≥ 6.0 °C | 10.2 °C | 12.4 °C | 12.4 °C | -0.5 °C | – | –
805 ± 60.8 nM | 62.3 ± 4.7 nM | 1437 | 111.3 | 0.56 ± 0.03 nM | – | – | – | COc1ccc2cc3[n+](cc2c1OCCCn1cc(COc2ccc(S(N)(=O)=O)cc2)nn1)CCc1cc2c(cc1-3)OCO2 [Compound 29, 10-Methoxy-9–(3-(4-((4-sulfamoylphenoxy)methyl)-1H-1,2,3-triazol-1-yl)propoxy)-5,6-dihydro-[1,3]dioxolo[4,5-g]isoquinolino[3,2-a]isoquinolin-7-ium hexafluorophosphate] | 8.0 °C | −1.5 °C | 16.0 °C | 3.0 °C | – | 12.8 °C | 13.2 °C | 13.2 °C | -0.5 °C | – | –
574 ± 35.8 nM | 15.8 ± 1.2 nM | 2390 | 65.8 | 0.24 ± 0.02 nM | – | – | – | COc1ccc2cc3[n+](cc2c1OCCCCCn1cc(-c2ccc(S(N)(=O)=O)cc2)nn1)CCc1cc2c(cc1-3)OCO2 [Compound 32, 10-Methoxy-9-((5–(4-(4-sulfamoylphenyl)-1H-1,2,3-triazol-1-yl)pentyl)oxy)-5,6-dihydro-[1,3]dioxolo[4,5-g]isoquinolino[3,2-a]isoquinolin-7-ium hexafluorophosphate] | 12.0 °C | 2.5 °C | 19.0 °C | 6.0 °C | – | 15.0 °C | 14.6 °C | 14.4 °C | -1.0 °C | – | ≥ 6.0 °C
